Measured values published in patent US12065654B2, “Plants having increased tolerance to herbicides” (BASF SE, priority 2014, dated 2024).

Legend:
[1] = test system: Arabidopsis wild-type control; assay: Germination assay in 48-well plates; assay type: in vivo, Arabidopsis thaliana; conditions: plant growth IC50 ratio to wildtype, mean of 5 T2 events
Experimental: (§1) Depending on the species, the plants are kept at 10-25° C. or 20-35° C. The test period extends over 3 weeks. During this time, the plants are tended and their response to the individual treatments is evaluated. Herbicide injury evaluations are taken at 2 and 3 weeks after treatment. Plant injury is rated on a scale of 0 to 9, 0 being no injury and 9 being complete death. Tolerance to HPPD-inhibiting, preferably pyrazolone, isoxazole, or triketone derivative herbicides can also be assessed in Arabidopsis. In this case transgenic Arabidopsis thaliana plants are assayed for improved tolerance to HPPD-inhibiting, preferably pyrazolone, isoxazole, or triketone derivative herbicides in 48-well plates. Seeds are surface sterilized by stirring for 5 min in ethanol+water (70+30 by volume), rinsing one time with ethanol+water (70+30 by volume) and two times with a sterile, deionized water. The seeds are resuspended in 0.1% agar dissolved in water (w/v). Four to five seeds per well are plated on solid nutrient medium consisting of half-strength Murashige Skoog nutrient solution, pH 5.8 (Murashige and Skoog (1962) Physiologia Plantarum 15: 473-497). Compounds are dissolved in dimethylsulfoxid (DMSO) and added to the medium prior solidification (final DMSO concentration 0.1%). Multi well plates are incubated in a growth chamber at 22° C., 75% relative humidity and 110 μmol Phot*m−2*s−1 with 14:10 h light:dark photoperiod. Seven to ten days after seeding growth inhibition is evaluated by comparison to wild type plants. Tolerance factor is calculated by dividing the plant growth IC50 value of transgenic plants containing a HPPD and/or HST sequence by that of wildtype plants.

[2] = test system: Arabidopsis overexpression line Arabidopsis HPPD; assay: Germination assay in 48-well plates; assay type: in vivo, Arabidopsis thaliana; conditions: plant growth IC50 transgenic / wildtype, mean of 5 T2 events
Experimental: as §1

[3] = test system: Arabidopsis overexpression line Synechocystis HPPD; assay: Germination assay in 48-well plates; assay type: in vivo, Arabidopsis thaliana; conditions: IC50 transgenic / wildtype, mean of 5 T2 events
Experimental: as §1

[4] = test system: transgenic soybean plants AtHPPD M335Y, event SDS-9866; assay: Greenhouse testing of soybean plants; assay type: in vivo, Glycine max; conditions: soybean AtHPPD M335Y SDS-9866, 14 days, average of 8 T1 individuals
Experimental: (§2) Transgenic plants expressing heterologous HPPD or HST enzymes are tested for tolerance against HPPD-inhibiting, preferably pyrazolone, isoxazole, or triketone derivative herbicides in greenhouse experiments.
(§3) For post emergence treatment, the test plants are first grown to a height of 3 to 15 cm, depending on the plant habit, and only then treated with the herbicides. For this purpose, the test plants are either sown directly and grown in the same containers, or they are first grown separately and transplanted into the test containers a few days prior to treatment.
(§4) For testing of T0 plants, cuttings can be used. In the case of soybean plants, an optimal shoot for cutting is about 7.5 to 10 cm tall, with at least two nodes present. Each cutting is taken from the original transformant (mother plant) and dipped into rooting hormone powder (indole-3-butyric acid, IBA). The cutting is then placed in oasis wedges inside a bio-dome. Wild type cuttings are also taken simultaneously to serve as controls. The cuttings are kept in the bio-dome for 5-7 days and then transplanted to pots and then acclimated in the growth chamber for two more days. Subsequently, the cuttings are transferred to the greenhouse, acclimated for approximately 4 days, and then subjected to spray tests as indicated.
as §1
(§5) Transgenic soy plants were sprayed with a range of doses from 6.25-100 g/ha with an HPPD-inhibiting herbicide and injury evaluations were taken two weeks after treatment. […] Compared to the untransformed wild-type, plants comprising polynucleotides encoding for Arabidopsis HPPD wild-type or mutated versions thereof were less susceptible to Inhibitor 1.

[5] = test system: transgenic soybean plants AtHPPD I393L L385V, event SDS-9908; assay: Greenhouse testing of soybean plants; assay type: in vivo, Glycine max; conditions: soybean AtHPPD I393L L385V SDS-9908, 14 days, average of 8 T1 individuals
Experimental: as §2, §3, §4, §1, §5

[6] = test system: transgenic soybean plants AtHPPD Q293S, event SDS-9928; assay: Greenhouse testing of soybean plants; assay type: in vivo, Glycine max; conditions: soybean AtHPPD Q293S SDS-9928, 14 days, average of 8 T1 individuals
Experimental: as §2, §3, §4, §1, §5

[7] = test system: soybean plants, transgene none (WT); assay: Greenhouse testing of soybean plants; assay type: in vivo, Glycine max; conditions: no transgene, 14 days after treatment
Experimental: as §2, §3, §4
as §1, with “Plant injury is rated on a scale of 0 to 9, 0 being no injury and 9 being complete death.” left out
as §5

[8] = test system: transgenic soybean plants AtHPPD M335H, event SDS-9863; assay: Greenhouse testing of soybean plants; assay type: in vivo, Glycine max; conditions: soybean AtHPPD M335H SDS-9863, 14 days, average of 8 T1 individuals
Experimental: as §2, §3, §4
as §1, with “Plant injury is rated on a scale of 0 to 9, 0 being no injury and 9 being complete death.” left out
as §5

[9] = test system: transgenic soybean plants GmHPPD, event SDS-10298; assay: Greenhouse testing of soybean plants; assay type: in vivo, Glycine max; conditions: soybean GmHPPD SDS-10298, 14 days, average of 8 T1 individuals
Experimental: as §2, §3, §4
as §1, with “Plant injury is rated on a scale of 0 to 9, 0 being no injury and 9 being complete death.” left out
as §5

Row | Structure (SMILES) | Tolerance factor [1] | Tolerance factor [2] | Tolerance factor [3] | Injury evaluation (bleaching phenotype, scale of 1-100) ([4]; 6.25 g/ha) [%] | Injury evaluation (bleaching phenotype, scale of 1-100) ([4]; 25 g/ha) [%] | Injury evaluation (bleaching phenotype, scale of 1-100) ([4]; 100 g/ha) [%] | Injury evaluation (bleaching phenotype, scale of 1-100) ([5]; 6.25 g/ha) [%] | Injury evaluation (bleaching phenotype, scale of 1-100) ([5]; 25 g/ha) [%] | Injury evaluation (bleaching phenotype, scale of 1-100) ([5]; 100 g/ha) [%] | Injury evaluation (bleaching phenotype, scale of 1-100) ([6]; 6.25 g/ha) [%] | Injury evaluation (bleaching phenotype, scale of 1-100) ([6]; 25 g/ha) [%] | Injury evaluation (bleaching phenotype, scale of 1-100) ([6]; 100 g/ha) [%] | Injury evaluation (bleaching phenotype, scale of 1-100) ([7]; 25 g/ha) [%] | Injury evaluation (bleaching phenotype, scale of 1-100) ([7]; 100 g/ha) [%] | Injury evaluation (bleaching phenotype, scale of 1-100) ([8]; 6.25 g/ha) [%] | Injury evaluation (bleaching phenotype, scale of 1-100) ([8]; 25 g/ha) [%] | Injury evaluation (bleaching phenotype, scale of 1-100) ([8]; 100 g/ha) [%] | Injury evaluation (bleaching phenotype, scale of 1-100) ([9]; 6.25 g/ha) [%] | Injury evaluation (bleaching phenotype, scale of 1-100) ([9]; 25 g/ha) [%] | Injury evaluation (bleaching phenotype, scale of 1-100) ([9]; 100 g/ha) [%]
1 | Cc1c(C(=O)c2cnn(C)c2O)ccc(S(C)(=O)=O)c1C1=NOCC1 [Inhibitor 1, [3-(4,5-dihydroisoxazol-3-yl)-2-methyl-4-methylsulfonyl-phenyl]-(5-hydroxy-1-methyl-pyrazol-4-yl)methanone] | 1 | 9 | 7.5 | 0 | 11 | 31 | 0 | 8 | 54 | 2 | 40 | 79 | 90 | 90 | 0 | 4 | 59 | 20 | 58 | 83
2 | CS(=O)(=O)c1ccc(C(=O)C2C(=O)CCCC2=O)c([N+](=O)[O-])c1 [Inhibitor 2, 2-(4-methylsulfonyl-2-nitro-benzoyl)cyclohexane-1,3-dione] | 1 | 10 | 10 |  |  |  |  |  |  |  |  |  |  |  |  |  |  |  |  | 
